biological target: T1, human PTH1 receptor (Homo sapiens, UniProt Q03431); assay: In vitro cAMP signal activity in HKRK-B7 cells (LLC-PK1 cells overexpressing the human PTH1 receptor); assay type: cell-based; details: 0.1 µM
T1 sequence (Q03431 27-593): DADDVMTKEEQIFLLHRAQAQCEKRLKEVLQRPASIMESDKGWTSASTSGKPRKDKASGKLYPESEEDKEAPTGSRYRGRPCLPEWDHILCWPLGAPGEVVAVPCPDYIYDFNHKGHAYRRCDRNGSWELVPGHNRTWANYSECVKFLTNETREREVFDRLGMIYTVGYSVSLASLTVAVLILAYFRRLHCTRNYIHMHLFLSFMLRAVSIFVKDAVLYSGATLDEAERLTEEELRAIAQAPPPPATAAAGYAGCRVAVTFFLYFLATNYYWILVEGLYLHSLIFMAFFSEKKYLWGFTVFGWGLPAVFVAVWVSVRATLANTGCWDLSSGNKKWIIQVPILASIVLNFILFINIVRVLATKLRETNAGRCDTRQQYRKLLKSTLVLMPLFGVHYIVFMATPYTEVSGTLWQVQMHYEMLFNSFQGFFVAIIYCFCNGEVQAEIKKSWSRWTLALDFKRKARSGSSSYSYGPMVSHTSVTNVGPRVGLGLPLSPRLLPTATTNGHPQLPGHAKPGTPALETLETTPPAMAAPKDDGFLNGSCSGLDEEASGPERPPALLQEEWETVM

Row | SMILES | cAMP production activity (%)
1 | Cc1cc(C(=O)N(C)C)ccc1CCS(=O)(=O)N1CCC2(CC1)N=C(Nc1ccc(C(F)(F)F)cc1)NC2=O [Compound 1396, 3,N,N-Trimethyl-4-{2-[4-oxo-2-(4-trifluoromethyl-phenylamino)-1,3,8-triaza-spiro[4.5]dec-1-ene-8-sulfonyl]-ethyl}-benzamide] | 133%

same assay, conditions: HKRK-B7 cells; compound at 1×10^−3 M; cAMP produced as percentage of that produced by hPTH(1-34) at 100 nM

Row | SMILES | cAMP production activity (%)
2 | [2H]C([2H])([2H])N(C(N)=O)c1cc(C)c(CCS(=O)(=O)N2CCC3(CC2)N=C(c2ccc(F)c(C(F)(F)F)c2)NC3=O)c(C)c1 [Compound 1391, 1-(4-{2-[2-(4-fluoro-3-trifluoromethyl-phenyl)-4-oxo-1,3,8-triaza-spiro[4.5]dec-1-ene-8-sulfonyl]-ethyl}-3,5-dimethyl-phenyl)-1-[1,1,1-^2H3]methyl-urea] | 116%
3 | O=C1NC(C2CCCCC2)=NC12CCN(S(=O)(=O)CCc1cccc3c1ccn3C[C@H](O)[C@@H](O)CO)CC2 [Compound 1392, 2-Cyclohexyl-8-{2-[1-((2S,3S)-2,3,4-trihydroxy-butyl)-1H-indol-4-yl]-ethanesulfonyl}-1,3,8-triaza-spiro[4.5]dec-1-en-4-one] | 89%
4 | O=C1NC(C2CCCCC2)=NC12CCN(S(=O)(=O)CCc1cccc3c1ccn3C[C@H](O)[C@@H](O)COCc1ccccc1)CC2 [Compound 1393, 8-{2-[1-((2S,3S)-4-benzyloxy-2,3-dihydroxy-butyl)-1H-indol-4-yl]-ethanesulfonyl}-2-cyclohexyl-1,3,8-triaza-spiro[4.5]dec-1-en-4-one] | 84%
5 | CC(=O)NCc1ccc(CCS(=O)(=O)N2CCC3(CC2)N=C(C2CCC(CCC(F)(F)F)CC2)NC3=O)c(C)c1 (stereo not shown) [Compound 1394, N-[3-Methyl-4-(2-{4-oxo-2-[4-(3,3,3-trifluoro-propyl)-cyclohexyl]-1,3,8-triaza-spiro[4.5]dec-1-ene-8-sulfonyl}-ethyl)-benzyl]-acetamide] | 82%
6 | Cc1cc(C(=O)N(C)C)ccc1CCS(=O)(=O)N1CCC2(CC1)N=C(Nc1cccc(C(F)(F)F)c1)NC2=O [Compound 1395, 3,N,N-Trimethyl-4-{2-[4-oxo-2-(3-trifluoromethyl-phenylamino)-1,3,8-triaza-spiro[4.5]dec-1-ene-8-sulfonyl]-ethyl}-benzamide] | 68%
7 | Cc1cc(C(=O)N(C)C)ccc1CCS(=O)(=O)N1CCC2(CC1)N=C(N(C)c1ccccc1)NC2=O [Compound 1397, 3,N,N-trimethyl-4-{2-[2-(methyl-phenyl-amino)-4-oxo-1,3,8-triaza-spiro[4.5]dec-1-ene-8-sulfonyl]-ethyl}-benzamide] | 24%
8 | Cc1cc(C(=O)N(C)C)ccc1CCS(=O)(=O)N1CCC2(CC1)N=C(N(C)Cc1ccccc1)NC2=O [Compound 1398, 4-{2-[2-(benzyl-methyl-amino)-4-oxo-1,3,8-triaza-spiro[4.5]dec-1-ene-8-sulfonyl]-ethyl}-3,N,N-trimethyl-benzamide] | 77%
9 | Cc1cc(C(=O)N(C)C)ccc1CCS(=O)(=O)N1CCC2(CC1)N=C(NCC1CCCCC1)NC2=O [Compound 1399, 4-{2-[2-(cyclohexylmethyl-amino)-4-oxo-1,3,8-triaza-spiro[4.5]dec-1-ene-8-sulfonyl]-ethyl}-3,N,N-trimethyl-benzamide] | 20%
10 | Cc1cc(C(=O)N(C)C)ccc1CCS(=O)(=O)N1CCC2(CC1)N=C(N(C)c1ccc(C(F)(F)F)cc1)NC2=O [Compound 1400, 3,N,N-trimethyl-4-(2-{2-[methyl-(4-trifluoromethyl-phenyl)-amino]-4-oxo-1,3,8-triaza-spiro[4.5]dec-1-ene-8-sulfonyl}-ethyl)-benzamide] | 49%
11 | CC(=O)Nc1ccc(CCS(=O)(=O)N2CCC3(CC2)N=C(Nc2ccc(C(F)(F)F)cc2)NC3=O)c(C)c1 [Compound 1401, N-(3-Methyl-4-{2-[4-oxo-2-(4-trifluoromethyl-phenylamino)-1,3,8-triaza-spiro[4.5]dec-1-ene-8-sulfonyl]-ethyl}-phenyl)-acetamide] | 73%
12 | CC(=O)Nc1ccc(CCS(=O)(=O)N2CCC3(CC2)N=C(Nc2cccc(C(F)(F)F)c2)NC3=O)c(C)c1 [Compound 1402, N-(3-methyl-4-{2-[4-oxo-2-(3-trifluoromethyl-phenylamino)-1,3,8-triaza-spiro[4.5]dec-1-ene-8-sulfonyl]-ethyl}-phenyl)-acetamide] | 69%
13 | CCCCC1CCN(C2=NC3(CCN(S(=O)(=O)CCc4ccc(C(=O)N(C)C)cc4C)CC3)C(=O)N2)CC1 [Compound 1403, 4-{2-[2-(4-Butyl-piperidin-1-yl)-4-oxo-1,3,8-triaza-spiro[4.5]dec-1-ene-8-sulfonyl]-ethyl}-3,N,N-trimethyl-benzamide] | 66%
14 | CCCCC1CCC(NC2=NC3(CCN(S(=O)(=O)CCc4ccc(C(=O)N(C)C)cc4C)CC3)C(=O)N2)CC1 (stereo not shown) [Compound 1404, 4-{2-[2-(4-butyl-cyclohexylamino)-4-oxo-1,3,8-triaza-spiro[4.5]dec-1-ene-8-sulfonyl]-ethyl}-3,N,N-trimethyl-benzamide] | 64%
15 | C=CCCCN(C)C(=O)c1ccc(CCS(=O)(=O)N2CCC3(CC2)N=C(c2cc(OCCC=C)cc(C(F)(F)F)c2)NC3=O)c(C)c1 [Compound 1405, 4-{2-[2-(3-But-3-enyloxy-5-trifluoromethyl-phenyl)-4-oxo-1,3,8-triaza-spiro[4.5]dec-1-ene-8-sulfonyl]-ethyl}-3,N-dimethyl-N-pent-4-enyl-benzamide] | 51%
16 | Cc1cc2ccc1CCS(=O)(=O)N1CCC3(CC1)N=C(NC3=O)c1cc(cc(C(F)(F)F)c1)OCCC=CCCCN(C)C2=O [Compound 1406] | 7.3%
17 | Cc1cc2ccc1CCS(=O)(=O)N1CCC3(CC1)N=C(NC3=O)c1cc(cc(C(F)(F)F)c1)OCCCCCCCN(C)C2=O [Compound 1407] | 6.6%

Row | SMILES | cAMP production activity (%)
18 | Cc1cc2ccc1CCS(=O)(=O)N1CCC3(CC1)N=C(NC3=O)c1cc(cc(C(F)(F)F)c1)OCC/C=C\CN(C)C2=O [Compound 1408] | 5.1%
19 | Cc1cc2ccc1CCS(=O)(=O)N1CCC3(CC1)N=C(NC3=O)c1cc(cc(C(F)(F)F)c1)OCCCCCN(C)C2=O [Compound 1409] | 13%
20 | Cc1cc2ccc1CCS(=O)(=O)N1CCC3(CC1)N=C(NC3=O)c1cc(cc(C(F)(F)F)c1)OCCCCCCCCN(C)C2=O [Compound 1412] | 7.2%
21 | Cc1cc2ccc1CCS(=O)(=O)N1CCC3(CC1)N=C(NC3=O)c1cc(cc(C(F)(F)F)c1)OCC/C=C/CCCCCN(C)C2=O [Compound 1413] | 57%
22 | Cc1cc2ccc1CCS(=O)(=O)N1CCC3(CC1)N=C(NC3=O)c1cc(cc(C(F)(F)F)c1)OCC/C=C\CCCCCN(C)C2=O [Compound 1414] | 47%
23 | Cc1cc2ccc1CCS(=O)(=O)N1CCC3(CC1)N=C(NC3=O)c1cc(cc(C(F)(F)F)c1)OCCCCCCCCCN(C)C2=O [Compound 1415] | 49%
24 | Cc1cc2ccc1CCS(=O)(=O)N1CCC3(CC1)N=C(NC3=O)c1cc(cc(C(F)(F)F)c1)OCC/C=C/CCCCCCN(C)C2=O [Compound 1416] | 48%
25 | Cc1cc2ccc1CCS(=O)(=O)N1CCC3(CC1)N=C(NC3=O)c1cc(cc(C(F)(F)F)c1)OCC/C=C\CCCCCCN(C)C2=O [Compound 1417] | 49%
26 | Cc1cc2ccc1CCS(=O)(=O)N1CCC3(CC1)N=C(NC3=O)c1cc(cc(C(F)(F)F)c1)OCCCCCCCCCCN(C)C2=O [Compound 1418] | 36%
27 | C=CCCOc1cc(C2=NC3(CCN(S(=O)(=O)CCc4ccc(C(=O)N(C)CCOCC=C)cc4C)CC3)C(=O)N2)cc(C(F)(F)F)c1 [Compound 1419, N-(2-Allyloxy-ethyl)-4-{2-[2-(3-but-3-enyloxy-5-trifluoromethyl-phenyl)-4-oxo-1,3,8-triaza-spiro[4.5]dec-1-ene-8-sulfonyl]-ethyl}-3,N-dimethyl-benzamide] | 70%
28 | Cc1cc2ccc1CCS(=O)(=O)N1CCC3(CC1)N=C(NC3=O)c1cc(cc(C(F)(F)F)c1)OCC/C=C/COCCN(C)C2=O [Compound 1420] | 20%
29 | Cc1cc2ccc1CCS(=O)(=O)N1CCC3(CC1)N=C(NC3=O)c1cc(cc(C(F)(F)F)c1)OCCCCCOCCN(C)C2=O [Compound 1421] | 49%
30 | Cc1cc2ccc1CCS(=O)(=O)N1CCC3(CC1)N=C(NC3=O)c1cc(cc(C(F)(F)F)c1)OCC/C=C/CNC(=O)CN(C)C2=O [Compound 1422] | 15%
31 | Cc1cc2ccc1CCS(=O)(=O)N1CCC3(CC1)N=C(NC3=O)c1cc(cc(C(F)(F)F)c1)OCCC/C=C\NC(=O)CN(C)C2=O [Compound 1423] | 17%
32 | Cc1cc2ccc1CCS(=O)(=O)N1CCC3(CC1)N=C(NC3=O)c1cc(cc(C(F)(F)F)c1)OCC/C=C/CO[C@H]1CN(C[C@@H]1O)C2=O [Compound 1424] | 29%

same assay, conditions: HKRK-B7 cells; compound at 1×10^−3 M; cAMP produced as percentage of that produced by hPTH(1-34) at 100 nM; 0.1 µM

Row | SMILES | cAMP production activity (%)
33 | Cc1cc2ccc1CCS(=O)(=O)N1CCC3(CC1)N=C(NC3=O)c1cc(cc(C(F)(F)F)c1)OCCC=CCCCCN(C)C2=O [Compound 1410] | 51%
34 | Cc1cc2ccc1CCS(=O)(=O)N1CCC3(CC1)N=C(NC3=O)c1cc(cc(C(F)(F)F)c1)OCCC=CCCCCN(C)C2=O [Compound 1411] | 38%

Reference: patent US9169254B2, “Spiroimidazolone derivative” (Chugai Seiyaku Kabushiki Kaisha, priority 2009, dated 2015)
